In the experiment the target is T1, Human chemokine receptor CXCR4 (Homo sapiens, UniProt P61073).
T1 construct: expressed in transfected cells; host or cells: Chem-1 cells (membranes)
The experiment can be described thus: Human CXCR4/125I-SDF-1α binding inhibition assay. On the procedure: “Ki” values are calculated using IC50 values determined in the CXCR4/^125I-SDF-1α binding assay described below by employing equation 7.22 of Enzymes, A Practical Introduction to Structure, Mechanism, and Data Analysis, Robert A. Copeland, Wiley-VCH, New York, 1996, page 207.
Human CXCR4/^125I-SDF-1α Binding Inhibition Assay:
Human chemokine receptor CXCR4 expressed in Chem-1 cells were used in modified HEPES buffer pH 7.4. A […] (Membrane protein may change from lot to lot, the concentration used were adjusted as necessary), aliquot was incubated with 0.03 nM [^125I]SDF-1α for 90 minutes at 25° C. Non-specific binding was estimated in the presence of 30 nM SDF-la. Membranes were filtered and washed, filters were then counted to determine [^125I]SDF-1α specifically bound. Compounds were screened starting at 10 μM with 11-point dilutions (Valenzuela-Fernandez A, et al. J Biol Chem. 277(18):15677, 2002).

[1] abbreviates: calculated from IC50 of the CXCR4/125I-SDF-1α binding assay, read-out: Binding Kb.

Where two headings read alike, the source gives them in different places. Bridge positions count the residues as written; N and C are the ends. Square brackets hold non-standard residues; d marks the D form. Peptide text beside a SMILES is read from it. * marks the point of attachment. 2Nal = N[C@@H](Cc1ccc2ccccc2c1)C(=O)O; Lys(iPr) = CC(C)NCCCC[C@H](N)C(=O)O; hCys = N[C@@H](CCS)C(=O)O; Bz = O=C(c1ccccc1)*; Mpa = O=C(O)CCS

T1 sequence (P61073 whole entry): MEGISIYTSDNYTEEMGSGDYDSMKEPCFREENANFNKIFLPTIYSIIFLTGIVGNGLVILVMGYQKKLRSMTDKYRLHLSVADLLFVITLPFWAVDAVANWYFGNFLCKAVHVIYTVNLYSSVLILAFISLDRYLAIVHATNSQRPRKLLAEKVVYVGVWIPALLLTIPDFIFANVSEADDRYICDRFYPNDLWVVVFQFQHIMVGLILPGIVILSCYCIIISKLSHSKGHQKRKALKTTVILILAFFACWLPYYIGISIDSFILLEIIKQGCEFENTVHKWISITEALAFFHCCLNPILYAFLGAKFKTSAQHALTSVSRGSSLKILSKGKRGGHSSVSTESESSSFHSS

Take `CC(C)NCCCC[C@@H]1NC(=O)[C@H](Cc2ccc(O)cc2)NC(=O)CCSSC[C@@H](C(=O)N[C@H](CCCNC(=N)N)C(=O)NCC(=O)N[C@H](Cc2ccccc2)C(=O)NCC(N)=O)NC(=O)CNC(=O)[C@H](Cc2ccc3ccccc3c2)NC(=O)[C@@H](CCCNC(=N)N)NC1=O` [Example 4, Cyclo[Mpa-Tyr-Lys(iPr)-(D-Arg)-2Nal-Gly-Cys]-(D-Arg)-Gly-(D-Phe)-Gly-NH2] ([Mpa]Y[Lys(iPr)][dR][2Nal]GC[dR]G[dF]G-NH2; disulfide 1-7): the Kb under setting [1] was 0.21 nM.
Take `N=C(N)NCCC[C@@H]1NC(=O)CCSSC[C@@H](C(=O)N[C@@H](CCCNC(=N)N)C(=O)NCC(=O)N[C@H](Cc2ccccc2)C(=O)NCC(N)=O)NC(=O)CNC(=O)[C@H](Cc2ccc3ccccc3c2)NC(=O)[C@H](CCCNC(=N)N)NC(=O)[C@H](Cc2ccc(O)cc2)NC1=O` [Example 5, Cyclo[Mpa-Arg-Tyr-Arg-2Nal-Gly-Cys]-Arg-Gly-(D-Phe)-Gly-NH2] ([Mpa]RYR[2Nal]GCRG[dF]G-NH2; disulfide 1-7): for the setting “CXCR4 expressed in Chem-1 cells, 0.03 nM [125I]SDF-1α, 90 minutes at 25° C., HEPES buffer pH 7.4, read-out: Binding IC50”, the IC50 (commonly the concentration needed to halve the response being measured) is greater than 1000 nM. Also, the Kb under setting [1] was greater than 1000 nM.
`CC(C)NCCCC[C@H](NC(=O)[C@@H]1CCSSC[C@H](NC(=O)c2ccccc2)C(=O)N[C@@H](Cc2ccc(O)cc2)C(=O)N[C@@H](CCCCNC(C)C)C(=O)N[C@H](CCCNC(=N)N)C(=O)N[C@@H](Cc2ccc3ccccc3c2)C(=O)NCC(=O)N1)C(=O)NCC(N)=O` [Example 12, Benzoyl-cyclo[Cys-Tyr-Lys(iPr)-(D-Arg)-2Nal-Gly-hCys]-Lys(iPr)-Gly-NH2] (Bz-CY[Lys(iPr)][dR][2Nal]G[hCys][Lys(iPr)]G-NH2; disulfide 1-7) came in with a Kb of 0.21 nM.
In turn, `CCNC(=O)CNC(=O)[C@H](CCCCNC(C)C)NC(=O)[C@@H]1CSSCC[C@H](NC(=O)c2ccccc2)C(=O)N[C@@H](Cc2ccc(O)cc2)C(=O)N[C@@H](CCCCNC(C)C)C(=O)N[C@H](CCCNC(=N)N)C(=O)N[C@@H](Cc2ccc3ccccc3c2)C(=O)NCC(=O)N1` [Example 14, Benzoyl-cyclo[hCys-Tyr-Lys(iPr)-(D-Arg)-2Nal-Gly-Cys]-Lys(iPr)-Gly-NH(Et)] (Bz-[hCys]Y[Lys(iPr)][dR][2Nal]GC[Lys(iPr)]G-NHEt; disulfide 1-7) gave a concentration for half-maximal inhibition (IC50) of 1.3 nM and a Kb of 0.39 nM.
